Patent US20130241815A1, “INK CONTAINING ANTHRAQUINONE BASED DYE, DYE USED IN THE INK, AND DISPLAY” (MITSUBISHI CHEMICAL CORPORATION, priority 2010, published 2013)

Assays:
Assay type in all cases: physicochemical
[1] = Preparation of ink and evaluation of solubility in low polar solvents (saturated solution, absorption maximum, εC); settings: for Absorption maximum wavelength: Decalin solution; for Solubility: Decalin, saturated solution, room temperature
[2] = as above; settings: for Solubility: saturated solution, room temperature
Experimental: Each of Illustrative Compounds 1 to 4 and Comparative Compounds 1, 2 and 4 was dissolved in each of the solvents of n-decane, tetradecane, ISOPAR M, and ISOPAR G, thereby preparing an ink. On that occasion, the solubility of each of the compounds in each of the solvents was measured in the following manner.
Each of the compounds (dyes) was added to each of the solvents until a dissolution residue was generated, and the contents were ultrasonically treated at a water temperature of 30° C. for 30 minutes. After standing at room temperature for 12 hours, the resultant was subjected to centrifugal filtration with a 0.1 μm filter by using an ultrasmall-sized centrifuge (centrifugal force: 5,200×g). Each of the obtained saturated solutions was diluted with an appropriate concentration, a solubility of each of the dyes was calculated from a relation with a previously measured absorption coefficient, and a product ∈C (cm^−1) of a molar absorption coefficient ∈ (L mole^−1 cm^−1) at the absorption maximum wavelength and a concentration C (mole L^−1) of the saturated solution was determined.

[3] = Light resistance test (residual rate of dye after 2 h irradiation, 400 W high pressure mercury vapor lamp); settings: 1 mg dye in 200 mL, 10 to 30° C.
Experimental: The light resistance of each of the compounds (dyes) was measured in the following manner.
1 mg of each of the compounds (dyes) was dissolved in 200 mL of each of the low polar solvents within a container, thereby preparing an ink. This ink was irradiated with light for 2 hours by using a photoreactor UVL-400HA (400 W high pressure mercury vapor lamp), manufactured by Riko Kagaku Sangyo K.K. During that interval, the container was cooled with a coolant, thereby keeping an internal temperature at from 10 to 30° C. A residual rate of the dye was determined by calculation according to the following expression, thereby evaluating the light resistance.
Residual rate=(Absorbance at the maximum absorption wavelength after irradiation)/(Absorbance at the maximum absorption wavelength before irradiation)

Compound	Absorption maximum wavelength [1] [nm]	Solubility [1] [% by mass]	εC ([2]; Decalin solution) [cm⁻¹]	Absorption maximum wavelength ([2]; ISOPAR G solution)	εC ([2]; ISOPAR G solution)	Solubility ([2]; ISOPAR G)	Absorption maximum wavelength ([2]; ISOPAR M solution)	εC ([2]; ISOPAR M solution)	Solubility ([2]; ISOPAR M)	Absorption maximum wavelength ([2]; Tetradecane solution)	εC ([2]; Tetradecane solution)	Solubility ([2]; Tetradecane)	Absorption maximum wavelength ([2]; n-Decane solution)	εC (molar absorption coefficient at absorption maximum x concentration of saturated solution) ([2]; n-Decane solution)	Solubility ([2]; n-Decane)	Residual rate after light resistance test ([3]; n-Decane) [%]	Residual rate after light resistance test ([3]; ISOPAR G) [%]	Residual rate after light resistance test ([3]; ISOPAR M) [%]	Residual rate after light resistance test ([3]; Tetradecane) [%]
CNc1ccc(Nc2ccc(C)cc2)c2c1C(=O)c1ccccc1C2=O [Comparative Compound 1, C.I. Solvent Blue 11, reference compound]	636	0.07	26	594 nm	7 cm⁻¹	0.02 % by mass	594 nm	7 cm⁻¹	0.02 % by mass	595 nm	12 cm⁻¹	0.04 % by mass	Unmeasurable	Low	Low				
CC(C)CNc1ccc(Nc2ccccc2)c2c1C(=O)c1ccccc1C2=O [Comparative Compound 2, reference compound]													614 nm	200 cm⁻¹	0.7 % by mass				
CCCCN(CCCC)c1ccc(N=Nc2nc(C#N)c(C#N)n2CC#N)c(NC(C)=O)c1 [Comparative Compound 3, reference compound]																45			
C=CCn1c(N=Nc2ccc(N(CCC)CCC)cc2NC(C)=O)nc(C#N)c1C#N [Comparative Compound 4, reference compound]	520	0.01	7	Unmeasurable	Low	Low	Unmeasurable	Low	Low	Unmeasurable	Low	Low	Unmeasurable	Low	Low				
CCCCC(CC)CNc1ccc(NCC(CC)CCCC)c2c1C(=O)c1ccccc1C2=O (stereo not drawn) [Illustrative Compound 1]	645	9.98	3400	649 nm	1900 cm⁻¹	7.3 % by mass	650 nm	1200 cm⁻¹	4.2 % by mass	651 nm	1600 cm⁻¹	5.7 % by mass	650 nm	2000 cm⁻¹	6.6 % by mass				
CCCCC(CC)CNc1ccc(NCC(CC)CCCC)c2c1C(=O)c1ccc(C(=O)OCC)cc1C2=O (stereo not drawn) [Illustrative Compound 2]													668 nm	1000 cm⁻¹	4.7 % by mass				
CCCCC(CC)CNc1ccc(NCC(CC)CCCC)c2c1C(=O)c1ccc(C(=O)OCC(C)C)cc1C2=O (stereo not drawn) [Illustrative Compound 3]	662	10.0	3100	667 nm	2700 cm⁻¹	10.8 % by mass	668 nm	1400 cm⁻¹	5.1 % by mass	668 nm	1200 cm⁻¹	4.7 % by mass	668 nm	1900 cm⁻¹	7.5 % by mass	78	88	77	94
CCCCC(CC)CNc1ccc(NCC(CC)CCCC)c2c1C(=O)c1ccc(C(=O)OCCC)cc1C2=O (stereo not drawn) [Illustrative Compound 4]				666 nm	1400 cm⁻¹	5.5 % by mass	667 nm	1200 cm⁻¹	4.5 % by mass	668 nm	1300 cm⁻¹	4.9 % by mass	668 nm	2400 cm⁻¹	9.5 % by mass	97	95	99	93
